Experimental findings from PubChem BioAssay AID330 (DTP/NCI, 2004) are described below.

Molecules are shown by their SMILES. Where “and” joins values, the source holds several entries; their conditions need not be identical. Equal entries are not always repeated. Toxic doses and inconclusive results are not listed. Square brackets hold non-standard residues; d marks the D form. Peptide text beside a SMILES is read from it. * marks the point of attachment. ξ: configuration not given here. Cbz = O=C(OCc1ccccc1)*; Propionyl = CCC(=O)*; OBn = c1ccc(CO*)cc1; Bn = c1ccc(C*)cc1; ξS = NC(CO)C(=O)O

For the experiment, the system named is P388 leukemia ip, CD2F1 mice, survival T/C. Briefly: NCI In Vivo Anticancer Drug Screen. Data for tumor model P388 Leukemia (intraperitoneal) in CD2F1 (CDF1) mice. As to conditions: endpoint: median survival time, higher = longer survival. In outline:
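Mice carrying the transplanted tumor received test compound or vehicle. Survival was recorded in each group, and the value is the treated-group measurement divided by that of the vehicle-treated control group.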

Setting [1] is: dose: 50.0 mg/kg/injection, schedule: Q01DX005 (ip), vehicle: Klucel (hydroxypropylcellulose) (HPC).
[2] abbreviates: dose: 100.0 mg/kg/injection, schedule: Q01DX005 (ip), vehicle: Klucel (hydroxypropylcellulose) (HPC).
Setting [3] is: dose: 50.0 mg/kg/injection, schedule: Q01DX009 (ip), vehicle: saline with Tween-80.
The mark [4] stands for this setting: dose: 100.0 mg/kg/injection, schedule: Q01DX009 (ip), vehicle: saline with Tween-80.
The mark [5] stands for this setting: dose: 200.0 mg/kg/injection, schedule: Q01DX009 (ip), vehicle: saline with Tween-80.
Where [6] appears, read: dose: 50.0 mg/kg/injection, schedule: Q01DX005 (ip), vehicle: saline with Tween-80.
Setting [7] is: dose: 100.0 mg/kg/injection, schedule: Q01DX005 (ip), vehicle: saline with Tween-80.
[8] abbreviates: dose: 200.0 mg/kg/injection, schedule: Q01DX005 (ip), vehicle: Klucel (hydroxypropylcellulose) (HPC).
The mark [9] stands for this setting: dose: 6.25 mg/kg/injection, schedule: Q01DX005 (ip), vehicle: saline with Tween-80.
Setting [10] is: dose: 200.0 mg/kg/injection, schedule: Q01DX005 (ip), vehicle: saline with Tween-80.

As for `O=C1C=C(N2CC2)C(=O)C(N2CC2)=C1N1CC1`, the T/C (dose: 0.02 mg/kg/injection, schedule: Q01DX005 (ip), vehicle: saline) is 155 % of control; the T/C (dose: 0.04 mg/kg/injection, schedule: Q01DX005 (ip), vehicle: saline) is 157 % of control and 158 % of control and 175 % of control; the T/C (dose: 0.08 mg/kg/injection, schedule: Q01DX005 (ip), vehicle: saline) is 191 % of control and 194 % of control and 214 % of control; the T/C (dose: 0.16 mg/kg/injection, schedule: Q01DX005 (ip), vehicle: saline) was 215 % of control and 226 % of control and 287 % of control; the T/C (dose: 0.32 mg/kg/injection, schedule: Q01DX005 (ip), vehicle: saline) is 111 % of control.

In the case of `CC(=O)C[n+]1ccccc1Oc1ccccc1`, the T/C was 93 % of control (dose: 25.0 mg/kg/injection, schedule: Q01DX005 (ip), vehicle: saline) and 96 % of control (dose: 50.0 mg/kg/injection, schedule: Q01DX005 (ip), vehicle: saline).

On to `O=C1C=CC(=O)N1Cc1ccco1`, for which the T/C was 90 % of control (dose: 100.0 mg/kg/injection, schedule: Q04DX003 (ip), vehicle: saline); 95 % of control (dose: 200.0 mg/kg/injection, schedule: Q04DX003 (ip), vehicle: saline); 95 % of control (dose: 400.0 mg/kg/injection, schedule: Q04DX003 (ip), vehicle: saline).

Take `C=CCNC(=S)Nc1ncn[nH]1`: the T/C is, setting by setting: under setting [1], 95 % of control; under setting [2], 104 % of control.

In the case of `CCC(=O)NC(CSCc1ccccc1)C(=O)NC(CCC(=O)OC)C(=O)OC` (configuration not stated) (Propionyl-Cys(Bn)-Glu(OMe)-OMe; configuration not given here), the T/C reads like this: under setting [3], 110 % of control; under setting [4], 100 % of control; under setting [5], 97 % of control.

On to `CCC1(O)CC(c2ccccc2)N(C)C(c2ccccc2)C1` (configuration not stated), for which the T/C under setting [6] is 99 % of control and the T/C under setting [7] is 95 % of control.

As to `O=NN(Cc1ccc(Cl)cc1)C(C(=O)O)c1ccccc1` (configuration not stated), the T/C (dose: 60.0 mg/kg/injection, schedule: Q01DX005 (ip), vehicle: Klucel + Tween-80) is 103 % of control and the T/C (dose: 120.0 mg/kg/injection, schedule: Q01DX005 (ip), vehicle: Klucel + Tween-80) is 103 % of control.

As for `CCCCCCCCCCCCCCCC[n+]1ccc(C(N)=O)cc1`, the T/C is, setting by setting: (dose: 3.0 mg/kg/injection, schedule: Q01DX009 (ip), vehicle: saline with Tween-80) 109 % of control; (dose: 6.0 mg/kg/injection, schedule: Q01DX009 (ip), vehicle: saline with Tween-80) 118 % of control; (dose: 12.0 mg/kg/injection, schedule: Q01DX009 (ip), vehicle: saline with Tween-80) 109 % of control.

For the compound `O=[N+]([O-])c1ccc(-c2nc(/C=N/N3CCS(=O)(=O)CC3)cs2)o1`, the T/C reads like this: (dose: 25.0 mg/kg/injection, schedule: Q01DX009 (ip), vehicle: saline with Tween-80) 99 % of control; under setting [3], 99 % of control; under setting [4], 100 % of control.

As for `Cc1ccc(/C=N/NC(=O)CNC(=O)c2ccccc2)cc1`, the T/C was 97 % of control (dose: 60.0 mg/kg/injection, schedule: Q01DX005 (ip), vehicle: saline with Tween-80); 92 % of control (dose: 120.0 mg/kg/injection, schedule: Q01DX005 (ip), vehicle: saline with Tween-80); 97 % of control (dose: 240.0 mg/kg/injection, schedule: Q01DX005 (ip), vehicle: saline with Tween-80).

With `CCCCCCCCCCCCCCCCCC[N+]1([O-])CCOCC1`, the T/C was 98 % of control (dose: 50.0 mg/kg/injection, schedule: Q01DX009 (ip), vehicle: saline) and 96 % of control (dose: 100.0 mg/kg/injection, schedule: Q01DX009 (ip), vehicle: saline).

In the case of `Cc1ccc(Nc2cc(C(=O)O)c(Nc3ccc(C)cc3)cc2C(=O)O)cc1`, the T/C reads like this: (dose: 50.0 mg/kg/injection, schedule: Q01DX009 (ip), vehicle: Klucel (hydroxypropylcellulose) (HPC)) 102 % of control; (dose: 100.0 mg/kg/injection, schedule: Q01DX009 (ip), vehicle: Klucel (hydroxypropylcellulose) (HPC)) 111 % of control; (dose: 200.0 mg/kg/injection, schedule: Q01DX009 (ip), vehicle: Klucel (hydroxypropylcellulose) (HPC)) 102 % of control.

For `O=C(CNC(=O)C(CO)NC(=O)OCc1ccccc1)NCC(=O)OCc1ccccc1` (stereo not drawn) (Cbz-[ξS]-Gly-Gly-OBn), the T/C under setting [1] was 101 % of control, the T/C under setting [2] was 99 % of control and the T/C under setting [8] is 97 % of control.

As for `CC(C)CC(NC(=O)OC(C)(C)C)C(=O)ON1C(=O)CCC1=O` (configuration not stated), the T/C by setting is: under setting [6], 111 % of control; under setting [7], 111 % of control.

Turning to `COP(=O)(O)OC.[U]`, the T/C (dose: 3.12 mg/kg/injection, schedule: Q01DX009 (ip), vehicle: saline with Tween-80) is 118 % of control and the T/C (dose: 6.25 mg/kg/injection, schedule: Q01DX009 (ip), vehicle: saline with Tween-80) was 118 % of control.

As to `CC(C)C1CC(N(C)C)=CC(=S)N1` (configuration not stated), the T/C is, setting by setting: under setting [1], 106 % of control; under setting [2], 110 % of control; (dose: 100.0 mg/kg/injection, schedule: Q01DX005 (ip), vehicle: saline) 93 % of control; (dose: 200.0 mg/kg/injection, schedule: Q01DX005 (ip), vehicle: saline) 102 % of control.

On to `COc1cc2c(cc1OC)-c1c3c(cc4c1[C@H](C2)N(C)CC4)OCO3`, for which the T/C by setting is: (dose: 200.0 mg/kg/injection, schedule: Q04DX003 (ip), vehicle: saline with Tween-80) 110 % of control; (dose: 400.0 mg/kg/injection, schedule: Q04DX003 (ip), vehicle: saline with Tween-80) 110 % of control.

In the case of `COC(=O)C1=C(O)/C(=C\c2ccccc2)NC1=O`, the T/C by setting is: under setting [1], 101 % of control; under setting [2], 108 % of control; under setting [8], 104 % of control.

As for `Oc1cc2c(c3c(O)c4ccccc4c(O)c13)=NC1CCCCC1N=2` (configuration not stated), the T/C (dose: 25.0 mg/kg/injection, schedule: Q01DX005 (ip), vehicle: Klucel (hydroxypropylcellulose) (HPC)) is 100 % of control; the T/C under setting [1] was 102 % of control; the T/C under setting [2] is 103 % of control; the T/C under setting [8] was 93 % of control.

Consider `C[N+]1(C)CCCC(O)(C(=O)c2ccccc2)C1` (configuration not stated), for which the T/C runs as follows: (dose: 100.0 mg/kg/injection, schedule: Q01DX001 (ip), vehicle: saline) 98 % of control; (dose: 200.0 mg/kg/injection, schedule: Q01DX001 (ip), vehicle: saline) 100 % of control.

For the compound `C1=CCOCOC1`, the T/C was 102 % of control and 109 % of control (2×) under setting [3]; 104 % of control and 109 % of control and 116 % of control under setting [4]; 111 % of control under setting [5].

As for `N#CN(Cc1ccccc1)Cc1ccccc1.[Cl][Sn]([c]1ccccc1)([c]1ccccc1)[c]1ccccc1`, the T/C is 98 % of control (dose: 3.12 mg/kg/injection, schedule: Q01DX005 (ip), vehicle: saline with Tween-80) and 95 % of control under setting [9].

Take `CC(=O)c1c(-c2ccc(Cl)cc2)c(-c2ccc(Cl)cc2)nn(C(C)CO)c1=O` (configuration not stated): the T/C runs as follows: under setting [6], 103 % of control; under setting [7], 100 % of control; under setting [10], 97 % of control.

Take `CCCCCCCCCCC(OC(C)=O)C1CCC(C2CCC(C(O)CCCCCCCCCCCCC3C=C(C)OC3=O)O2)O1` (configuration not stated): the T/C was 111 % of control (dose: 0.25 mg/kg/injection, schedule: Q01DX005 (ip), vehicle: water) and 124 % of control (dose: 0.5 mg/kg/injection, schedule: Q01DX005 (ip), vehicle: water).

For the compound `O=C(NCCCBr)c1csc(-c2csc(CCNC(=O)C(F)(F)F)n2)n1`, the T/C by setting is: under setting [9], 89 % of control; (dose: 12.5 mg/kg/injection, schedule: Q01DX005 (ip), vehicle: saline with Tween-80) 104 % of control; (dose: 25.0 mg/kg/injection, schedule: Q01DX005 (ip), vehicle: saline with Tween-80) 95 % of control; under setting [6], 97 % of control; under setting [7], 90 % of control; under setting [10], 87 % of control.

As for `O=C(C=C(C(F)(F)F)C(F)(F)F)c1ccco1`, the T/C is, setting by setting: (dose: 12.5 mg/kg/injection, schedule: Q04DX003 (ip), vehicle: saline with Tween-80) 100 % of control; (dose: 25.0 mg/kg/injection, schedule: Q04DX003 (ip), vehicle: saline with Tween-80) 109 % of control; (dose: 50.0 mg/kg/injection, schedule: Q04DX003 (ip), vehicle: saline with Tween-80) 95 % of control.

For the compound `Nc1ncnc(Nc2ccc(S(N)(=O)=O)cc2)n1`, the T/C (dose: 5.0 mg/kg/injection, schedule: Q01DX009 (ip), vehicle: Klucel (hydroxypropylcellulose) (HPC)) is 100 % of control; the T/C (dose: 10.0 mg/kg/injection, schedule: Q01DX009 (ip), vehicle: Klucel (hydroxypropylcellulose) (HPC)) is 97 % of control; the T/C (dose: 20.0 mg/kg/injection, schedule: Q01DX009 (ip), vehicle: Klucel (hydroxypropylcellulose) (HPC)) was 100 % of control.
